# From ChEMBL document CHEMBL1155545, “Design, synthesis and evaluation of 2,4-disubstituted pyrimidines as cholinesterase inhibitors” (Bioorg Med Chem Lett, 2010)
# Key:
# [1] = target: Acetylcholinesterase (Electrophorus electricus, UniProt O42275)
# Description: Inhibition of electric eel AChE
# [2] = target: Cholinesterase (Equus caballus, UniProt P81908)
# Sequence of Cholinesterase (P81908 whole entry): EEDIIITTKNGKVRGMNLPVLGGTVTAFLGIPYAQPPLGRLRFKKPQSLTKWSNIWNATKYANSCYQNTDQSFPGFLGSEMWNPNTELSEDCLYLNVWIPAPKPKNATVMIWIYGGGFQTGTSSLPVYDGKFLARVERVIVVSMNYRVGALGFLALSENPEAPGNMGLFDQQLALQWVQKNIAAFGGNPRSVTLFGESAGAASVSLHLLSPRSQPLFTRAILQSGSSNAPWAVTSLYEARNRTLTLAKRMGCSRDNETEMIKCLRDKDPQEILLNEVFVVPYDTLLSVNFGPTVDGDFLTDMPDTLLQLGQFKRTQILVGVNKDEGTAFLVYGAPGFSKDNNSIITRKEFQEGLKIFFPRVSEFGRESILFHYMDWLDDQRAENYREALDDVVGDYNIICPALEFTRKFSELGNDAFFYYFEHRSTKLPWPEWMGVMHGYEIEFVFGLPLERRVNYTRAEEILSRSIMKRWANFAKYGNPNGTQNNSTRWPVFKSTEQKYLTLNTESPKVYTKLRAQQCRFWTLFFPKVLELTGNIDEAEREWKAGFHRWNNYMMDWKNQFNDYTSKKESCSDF
# Description: Inhibition of equine serum BuChE
# Sequence of Acetylcholinesterase (O42275 whole entry): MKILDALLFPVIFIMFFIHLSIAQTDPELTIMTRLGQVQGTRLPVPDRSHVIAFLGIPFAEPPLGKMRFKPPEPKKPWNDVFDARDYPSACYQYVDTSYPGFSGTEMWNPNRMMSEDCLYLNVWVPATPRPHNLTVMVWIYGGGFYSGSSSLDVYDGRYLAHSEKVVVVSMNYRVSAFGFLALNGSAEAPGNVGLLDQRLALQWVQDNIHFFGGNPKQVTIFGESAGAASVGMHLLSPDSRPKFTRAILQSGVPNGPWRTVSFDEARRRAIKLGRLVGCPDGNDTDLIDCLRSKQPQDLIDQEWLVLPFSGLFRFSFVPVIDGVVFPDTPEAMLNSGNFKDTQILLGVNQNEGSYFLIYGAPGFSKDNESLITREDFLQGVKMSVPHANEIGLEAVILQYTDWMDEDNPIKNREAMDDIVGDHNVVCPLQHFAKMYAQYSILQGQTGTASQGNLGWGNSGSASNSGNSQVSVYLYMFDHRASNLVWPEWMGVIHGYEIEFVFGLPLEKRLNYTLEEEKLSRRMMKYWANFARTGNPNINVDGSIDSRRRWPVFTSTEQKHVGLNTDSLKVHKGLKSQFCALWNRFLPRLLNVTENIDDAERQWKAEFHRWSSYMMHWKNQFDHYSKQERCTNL
SMILES,IC50 [1],IC50 [2]
CC1CCN(c2nccc(NCc3ccccc3)n2)CC1,0.39 µM,2.9 µM
c1ccc(CCNc2ccnc(N3CCSCC3)n2)cc1,25 µM,> 100 µM
CN1CCN(c2nccc(NCCc3ccccc3)n2)CC1,14.4 µM,> 100 µM
CC1CCN(c2nccc(NCCc3ccccc3)n2)CC1,7.9 µM,17.7 µM
c1ccc2c(CNc3ccnc(N4CCCC4)n3)cccc2c1,5.8 µM,8.9 µM
c1ccc2c(CNc3ccnc(N4CCOCC4)n3)cccc2c1,15.7 µM,28 µM
c1ccc2c(CNc3ccnc(N4CCSCC4)n3)cccc2c1,15.5 µM,
CN1CCN(c2nccc(NCc3cccc4ccccc34)n2)CC1,17.6 µM,2.6 µM
CN1CCN(c2nccc(NCc3ccccc3)n2)CC1,0.56 µM,> 100 µM
c1ccc(CCNc2ccnc(N3CCOCC3)n2)cc1,4.8 µM,> 100 µM
c1ccc(CNc2ccnc(N3CCCC3)n2)cc1,9.8 µM,26.4 µM
c1ccc(CNc2ccnc(N3CCOCC3)n2)cc1,0.5 µM,
c1ccc(CNc2ccnc(N3CCSCC3)n2)cc1,0.33 µM,2.3 µM
c1ccc2c(NCCCCCCCNc3c4c(nc5ccccc35)CCCC4)c3c(nc2c1)CCCC3,0.0018 µM,0.0105 µM
